Laboratory results from ChEMBL document CHEMBL3885881, “DrugMatrix”.

Species on record: Rattus norvegicus
Assay: DrugMatrix - Regimen: Daily Repeat
Assay type: toxicity, organism-based, Sprague-Dawley
Design: regimen Daily Repeat, gender Male, age 6-8 weeks
Details: in vivo, po, route oral GAVAGE, […]; for ABSOLUTE BASOPHIL / ABSOLUTE EOSINOPHIL / ABSOLUTE LYMPHOCYTE / ABSOLUTE SEGMENTED NEUTROPHIL / BASOPHIL / EOSINOPHIL / ERYTHROCYTE COUNT / HEMOGLOBIN / LEUKOCYTE COUNT / LYMPHOCYTE / MEAN CORPUSCULAR HEMOGLOBIN / MEAN CORPUSCULAR HEMOGLOBIN CONCENTRATION / MEAN CORPUSCULAR VOLUME / MONOCYTE / NEUTROPHIL / NUCLEATED RED BLOOD CELLS / PLATELET COUNT: tissue Blood; for ALANINE AMINOTRANSFERASE / ALBUMIN / ALKALINE PHOSPHATASE / ASPARTATE AMINOTRANSFERASE / BLOOD UREA NITROGEN / CARBON DIOXIDE / CHLORIDE / CHOLESTEROL / CREATINE PHOSPHOKINASE / CREATININE / GLUCOSE / LACTATE DEHYDROGENASE / LIPASE / PHOSPHORUS / POTASSIUM / SODIUM / TOTAL BILIRUBIN / URIC ACID: tissue Plasma
[1] = 20 mg/kg, 72 h, dose level Low, time 3 day
[2] = 20 mg/kg, 120 h, dose level Low, time 5 day
[3] = 600 mg/kg, 72 h, dose level High, time 3 day
[4] = 600 mg/kg, 120 h, dose level High, time 5 day

CCCN(CCC)S(=O)(=O)c1ccc(C(=O)O)cc1 [PROBENECID]
ABSOLUTE BASOPHIL [1]: 0 CELLS/uL
ABSOLUTE EOSINOPHIL [1]: 143 CELLS/uL
ABSOLUTE LYMPHOCYTE [1]: 13997.67 CELLS/uL
ABSOLUTE SEGMENTED NEUTROPHIL [1]: 1155.67 CELLS/uL
BASOPHIL [1]: 0%
EOSINOPHIL [1]: 1%
ERYTHROCYTE COUNT [1]: 5.57 x10E6/uL
HEMOGLOBIN [1]: 13.7 G/DL
LEUKOCYTE COUNT [1]: 15.43 x10E3/uL
LYMPHOCYTE [1]: 90.33%
MEAN CORPUSCULAR HEMOGLOBIN [1]: 24.67 pg
MEAN CORPUSCULAR HEMOGLOBIN CONCENTRATION [1]: 39.3 G/DL
MEAN CORPUSCULAR VOLUME [1]: 62.8 fL
MONOCYTE [1]: 1%
NEUTROPHIL [1]: 7.67%
NUCLEATED RED BLOOD CELLS [1]: 0 /100WBC
PLATELET COUNT [1]: 1224.33 x10E3/uL
ALANINE AMINOTRANSFERASE [1]: 70 u/L
ALBUMIN [1]: 4 G/DL
ALKALINE PHOSPHATASE [1]: 531.67 u/L
ASPARTATE AMINOTRANSFERASE [1]: 87.67 u/L
BLOOD UREA NITROGEN [1]: 11 mg/dL
CARBON DIOXIDE [1]: 33.67 mmol/L
CHLORIDE [1]: 100.67 MEQ/L
CHOLESTEROL [1]: 81 mg/dL
CREATINE PHOSPHOKINASE [1]: 196.67 u/L
CREATININE [1]: 0.13 mg/dL
GLUCOSE [1]: 157.33 mg/dL
LACTATE DEHYDROGENASE [1]: 142.33 u/L
LIPASE [1]: 10.67 u/L
PHOSPHORUS [1]: 10.83 mg/dL
POTASSIUM [1]: 6.5 MEQ/L
SODIUM [1]: 141.87 MEQ/L
TOTAL BILIRUBIN [1]: 0.13 mg/dL
URIC ACID [1]: 1.4 mg/dL
ABSOLUTE BASOPHIL [2]: 0 CELLS/uL
ABSOLUTE EOSINOPHIL [2]: 118.67 CELLS/uL
ABSOLUTE LYMPHOCYTE [2]: 12848.33 CELLS/uL
ABSOLUTE SEGMENTED NEUTROPHIL [2]: 894.33 CELLS/uL
BASOPHIL [2]: 0%
EOSINOPHIL [2]: 0.67%
ERYTHROCYTE COUNT [2]: 5.43 x10E6/uL
HEMOGLOBIN [2]: 13.5 G/DL
LEUKOCYTE COUNT [2]: 14.13 x10E3/uL
LYMPHOCYTE [2]: 91%
MEAN CORPUSCULAR HEMOGLOBIN [2]: 25.03 pg
MEAN CORPUSCULAR HEMOGLOBIN CONCENTRATION [2]: 39.73 G/DL
MEAN CORPUSCULAR VOLUME [2]: 62.93 fL
MONOCYTE [2]: 2%
NEUTROPHIL [2]: 6.33%
NUCLEATED RED BLOOD CELLS [2]: 0 /100WBC
PLATELET COUNT [2]: 1072.33 x10E3/uL
ALANINE AMINOTRANSFERASE [2]: 70.67 u/L
ALBUMIN [2]: 3.97 G/DL
ALKALINE PHOSPHATASE [2]: 404.33 u/L
ASPARTATE AMINOTRANSFERASE [2]: 114.67 u/L
BLOOD UREA NITROGEN [2]: 13.67 mg/dL
CARBON DIOXIDE [2]: 29.67 mmol/L
CHLORIDE [2]: 102 MEQ/L
CHOLESTEROL [2]: 63.33 mg/dL
CREATINE PHOSPHOKINASE [2]: 910.33 u/L
CREATININE [2]: 0.19 mg/dL
GLUCOSE [2]: 178 mg/dL
LACTATE DEHYDROGENASE [2]: 364 u/L
LIPASE [2]: 10.33 u/L
PHOSPHORUS [2]: 11.13 mg/dL
POTASSIUM [2]: 6.49 MEQ/L
SODIUM [2]: 141.5 MEQ/L
TOTAL BILIRUBIN [2]: 0.23 mg/dL
URIC ACID [2]: 1.67 mg/dL
ABSOLUTE BASOPHIL [3]: 0 CELLS/uL
ABSOLUTE EOSINOPHIL [3]: 106 CELLS/uL
ABSOLUTE LYMPHOCYTE [3]: 14409.67 CELLS/uL
ABSOLUTE SEGMENTED NEUTROPHIL [3]: 2126 CELLS/uL
BASOPHIL [3]: 0%
EOSINOPHIL [3]: 0.67%
ERYTHROCYTE COUNT [3]: 5.2 x10E6/uL
HEMOGLOBIN [3]: 13.4 G/DL
LEUKOCYTE COUNT [3]: 16.7 x10E3/uL
LYMPHOCYTE [3]: 86.33%
MEAN CORPUSCULAR HEMOGLOBIN [3]: 25.73 pg
MEAN CORPUSCULAR HEMOGLOBIN CONCENTRATION [3]: 40.6 G/DL
MEAN CORPUSCULAR VOLUME [3]: 63.43 fL
MONOCYTE [3]: 0.33%
NEUTROPHIL [3]: 12.67%
NUCLEATED RED BLOOD CELLS [3]: 0.33 /100WBC
PLATELET COUNT [3]: 1182.33 x10E3/uL
ALANINE AMINOTRANSFERASE [3]: 83.67 u/L
ALBUMIN [3]: 3.93 G/DL
ALKALINE PHOSPHATASE [3]: 534.33 u/L
ASPARTATE AMINOTRANSFERASE [3]: 87 u/L
BLOOD UREA NITROGEN [3]: 11 mg/dL
CARBON DIOXIDE [3]: 27.67 mmol/L
CHLORIDE [3]: 99.67 MEQ/L
CHOLESTEROL [3]: 58 mg/dL
CREATINE PHOSPHOKINASE [3]: 599.67 u/L
CREATININE [3]: 0.18 mg/dL
GLUCOSE [3]: 155.67 mg/dL
LACTATE DEHYDROGENASE [3]: 259.33 u/L
LIPASE [3]: 10.33 u/L
PHOSPHORUS [3]: 10.97 mg/dL
POTASSIUM [3]: 6.4 MEQ/L
SODIUM [3]: 139.6 MEQ/L
TOTAL BILIRUBIN [3]: 0.27 mg/dL
URIC ACID [3]: 1.33 mg/dL
ABSOLUTE BASOPHIL [4]: 0 CELLS/uL
ABSOLUTE EOSINOPHIL [4]: 58.67 CELLS/uL
ABSOLUTE LYMPHOCYTE [4]: 15278 CELLS/uL
ABSOLUTE SEGMENTED NEUTROPHIL [4]: 1476.33 CELLS/uL
BASOPHIL [4]: 0%
EOSINOPHIL [4]: 0.33%
ERYTHROCYTE COUNT [4]: 6 x10E6/uL
HEMOGLOBIN [4]: 14.33 G/DL
LEUKOCYTE COUNT [4]: 16.87 x10E3/uL
LYMPHOCYTE [4]: 90.67%
MEAN CORPUSCULAR HEMOGLOBIN [4]: 23.93 pg
MEAN CORPUSCULAR HEMOGLOBIN CONCENTRATION [4]: 39.6 G/DL
MEAN CORPUSCULAR VOLUME [4]: 60.4 fL
MONOCYTE [4]: 0.33%
NEUTROPHIL [4]: 8.67%
NUCLEATED RED BLOOD CELLS [4]: 0 /100WBC
PLATELET COUNT [4]: 1128.33 x10E3/uL
ALANINE AMINOTRANSFERASE [4]: 55.67 u/L
ALBUMIN [4]: 4.37 G/DL
ALKALINE PHOSPHATASE [4]: 404.67 u/L
ASPARTATE AMINOTRANSFERASE [4]: 96.33 u/L
BLOOD UREA NITROGEN [4]: 20.33 mg/dL
CARBON DIOXIDE [4]: 31 mmol/L
CHLORIDE [4]: 101.67 MEQ/L
CHOLESTEROL [4]: 55.33 mg/dL
CREATINE PHOSPHOKINASE [4]: 902 u/L
CREATININE [4]: 0.25 mg/dL
GLUCOSE [4]: 169 mg/dL
LACTATE DEHYDROGENASE [4]: 213.67 u/L
LIPASE [4]: 10 u/L
PHOSPHORUS [4]: 10.3 mg/dL
POTASSIUM [4]: 5.85 MEQ/L
SODIUM [4]: 142.7 MEQ/L
TOTAL BILIRUBIN [4]: 0.27 mg/dL
URIC ACID [4]: 1.8 mg/dL
